ChEMBL document CHEMBL5532743, “Discovery of a Pentapeptide Antagonist to Human Neuromedin U Receptor 1” (ACS Med Chem Lett, 2024)
Activity calls are given as the source filed them. The calls are words filed in the database; no cut-off is given here. Non-standard residues stand in square brackets, D forms with d. Residues, ends and D or L forms follow the SMILES beside them. *: point of attachment. NMeW = CN[C@@H](Cc1c[nH]c2ccccc12)C(=O)O; Phe(4-F) = N[C@@H](Cc1ccc(F)cc1)C(=O)O; NMeY = CN[C@@H](Cc1ccc(O)cc1)C(=O)O; Acetyl(2-thienyl) = O=C(Cc1cccs1)*; NMeF = CN[C@@H](Cc1ccccc1)C(=O)O; hArg = N=C(N)NCCCC[C@H](N)C(=O)O; αMeF = C[C@](N)(Cc1ccccc1)C(=O)O; Tic = O=C(O)[C@@H]1Cc2ccccc2CN1; NMeN = CN[C@@H](CC(N)=O)C(=O)O; NMeL = CN[C@@H](CC(C)C)C(=O)O; Pip = O=C(O)[C@@H]1CCCCN1

How the values were obtained:
[1] = target: T1, Neuromedin-U receptor 1 (Homo sapiens) (UniProt Q9HB89); assay: Antagonist activity at human NMUR1 stably expressed in CHO cells by Fluo-4 AM dye based calcium mobilization assay; format: functional, cell-based; conditions: dose 30-300 nM
T1 sequence (whole entry): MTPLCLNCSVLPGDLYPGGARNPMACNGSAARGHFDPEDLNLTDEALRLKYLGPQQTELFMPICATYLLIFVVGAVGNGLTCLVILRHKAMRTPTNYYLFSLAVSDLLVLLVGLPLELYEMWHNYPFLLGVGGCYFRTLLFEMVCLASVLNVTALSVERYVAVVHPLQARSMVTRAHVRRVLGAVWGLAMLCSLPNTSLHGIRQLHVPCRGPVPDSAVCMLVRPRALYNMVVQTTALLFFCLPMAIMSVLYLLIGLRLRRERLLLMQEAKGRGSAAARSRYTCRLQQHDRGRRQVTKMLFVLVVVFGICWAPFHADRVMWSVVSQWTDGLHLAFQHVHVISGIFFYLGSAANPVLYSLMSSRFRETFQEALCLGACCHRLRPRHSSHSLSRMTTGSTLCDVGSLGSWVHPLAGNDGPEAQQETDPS

Neuromedin-U receptor 2 [2] = target: T2, Neuromedin-U receptor 2 (Homo sapiens, UniProt Q9GZQ4); assay: Antagonist activity at human NMUR2 stably expressed in CHO cells by Fluo-4 AM dye based calcium mobilization assay; format: functional, cell-based; conditions: filed as antagonist, dose 30-300 nM
Homo sapiens = species on record: Homo sapiens; assay: Selectivity ratio of human NMUR2 to human NMUR1
Neuromedin-U receptor 2 [3] = target: T2, Neuromedin-U receptor 2; assay: Antagonist potency at human NMUR2 stably expressed in CHO cells by Fluo-4 AM dye based calcium mobilization assay; format: functional, cell-based; conditions: read-out: pA2 (converted)
[4] = target: T1, Neuromedin-U receptor 1 (Homo sapiens); assay: Antagonist activity at human NMUR1 stably expressed in CHO cells at 100 to 1000 nM by Fluo-4 AM dye based calcium mobilization assay; format: functional, cell-based; conditions: filed as antagonist, dose 100-1000 nM
Neuromedin-U receptor 2 [5] = target: T2, Neuromedin-U receptor 2; assay: Binding affinity to human NMUR2 assessed as equilibrium binding constant; conditions: filed as antagonist
[6] = target: T1, Neuromedin-U receptor 1 (Homo sapiens); assay: Binding affinity to human NMUR1 assessed as equilibrium binding constant; conditions: filed as antagonist
Neuromedin-U receptor 1 = target: T3, Neuromedin-U receptor 1 (Homo sapiens, UniProt Q9HB89); assay: Antagonist potency at human NMUR1 stably expressed in CHO cells by Fluo-4 AM dye based calcium mobilization assay; format: functional, cell-based; conditions: read-out: pA2 (converted)
T3 sequence (Q9HB89 whole entry): T1 sequence (whole entry)

[7] = target: Neuromedin-U receptor 2 (Mus musculus) (UniProt Q8BZ39); assay: Antagonist activity at mouse NMUR2 expressed in HEK293 cells by Fluo-4 AM dye based calcium mobilization assay; format: functional, cell-based
[8] = target: T4, Neuromedin-U receptor 1 (Mus musculus) (UniProt O55040); assay: Antagonist activity at mouse NMUR1 expressed in HEK293 cells by Fluo-4 AM dye based calcium mobilization assay; format: functional, cell-based
T4 sequence (whole entry): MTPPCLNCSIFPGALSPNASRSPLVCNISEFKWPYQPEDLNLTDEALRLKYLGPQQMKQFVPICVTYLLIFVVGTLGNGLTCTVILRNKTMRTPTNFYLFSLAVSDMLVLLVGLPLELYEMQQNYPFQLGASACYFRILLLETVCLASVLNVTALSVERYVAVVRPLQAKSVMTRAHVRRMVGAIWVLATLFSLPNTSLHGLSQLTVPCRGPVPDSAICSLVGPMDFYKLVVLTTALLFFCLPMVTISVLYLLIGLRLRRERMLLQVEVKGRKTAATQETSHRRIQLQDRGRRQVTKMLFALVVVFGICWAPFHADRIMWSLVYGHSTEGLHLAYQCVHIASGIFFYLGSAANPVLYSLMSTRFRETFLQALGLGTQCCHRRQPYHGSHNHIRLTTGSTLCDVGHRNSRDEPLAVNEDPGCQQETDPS

[9] = Drug degradation in human serum assessed as half life by RP-HPLC analysis; format: ADME, cell-free
[10] = Drug degradation in human serum assessed as drug recovery incubated for 15 mins in presence of argatroban by RP-HPLC analysis; format: ADME, cell-free; conditions: with argatroban, read-out: Drug recovery
[11] = Drug degradation in human serum assessed as drug recovery incubated for 15 mins in presence of aprotinin by RP-HPLC analysis; format: ADME, cell-free; conditions: 0.25 h
[12] = Stability in human plasma assessed drug recovery measured at 120 mins by RP-HPLC analysis; format: ADME, cell-free; conditions: read-out: Drug recovery
[13] = Retention time in human serum measured at 40 min by RP-HPLC analysis; format: ADME, cell-free
[14] = Drug metabolism in rat serum assessed as (2S)-5-guanidino-2-[[(2S)-1-[(2S)-5-guanidino-2-[[(2S)-2-[[(2S)-3-(1H-indol-3-yl)-2-[methyl-[2-(2-thienyl)acetyl]amino]propanoyl]amino]-2-methyl-3-phenyl-propanoyl]amino]pentanoyl]pyrrolidine-2-carbonyl]amino]pentanoic acid formation by RP-HPLC analysis; format: ADME, cell-free
[15] = Drug degradation in rat serum by RP-HPLC analysis; format: ADME, cell-free

T2 sequence (Q9GZQ4 whole entry): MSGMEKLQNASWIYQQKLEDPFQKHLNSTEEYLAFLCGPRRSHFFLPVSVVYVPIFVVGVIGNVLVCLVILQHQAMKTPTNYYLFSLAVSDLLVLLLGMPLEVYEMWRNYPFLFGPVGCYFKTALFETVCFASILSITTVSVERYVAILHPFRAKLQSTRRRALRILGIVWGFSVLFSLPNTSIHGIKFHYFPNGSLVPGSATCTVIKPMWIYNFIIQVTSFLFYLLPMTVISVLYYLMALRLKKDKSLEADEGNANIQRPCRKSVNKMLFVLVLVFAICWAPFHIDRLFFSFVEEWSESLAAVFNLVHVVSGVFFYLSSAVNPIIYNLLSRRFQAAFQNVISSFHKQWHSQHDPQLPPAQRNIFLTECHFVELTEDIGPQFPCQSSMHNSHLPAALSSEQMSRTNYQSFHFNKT
Sequence of Neuromedin-U receptor 2 (Mus musculus) (Q8BZ39 whole entry): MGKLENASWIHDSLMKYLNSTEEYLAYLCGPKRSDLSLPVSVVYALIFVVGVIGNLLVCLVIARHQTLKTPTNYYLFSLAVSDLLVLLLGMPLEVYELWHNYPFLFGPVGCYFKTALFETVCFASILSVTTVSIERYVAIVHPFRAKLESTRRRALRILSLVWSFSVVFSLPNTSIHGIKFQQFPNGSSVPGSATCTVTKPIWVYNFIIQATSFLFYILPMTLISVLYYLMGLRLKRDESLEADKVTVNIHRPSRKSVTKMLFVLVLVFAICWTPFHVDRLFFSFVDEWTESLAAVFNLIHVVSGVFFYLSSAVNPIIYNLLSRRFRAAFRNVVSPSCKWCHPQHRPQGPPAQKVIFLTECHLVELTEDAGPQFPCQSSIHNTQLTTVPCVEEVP

CN(C(=O)Cc1cccs1)[C@@H](Cc1ccccc1)C(=O)N[C@@H](Cc1ccccc1)C(=O)N[C@@H](CCCNC(=N)N)C(=O)N1CCC[C@H]1C(=O)N[C@@H](CCCNC(=N)N)C(=O)N[C@@H](CC(N)=O)C(N)=O ({Acetyl(2-thienyl)}-[NMeF]FRPRN-NH2)
Activity ([1]; filed as antagonist): Active

CC(C)C[C@@H](C(=O)N[C@@H](Cc1ccccc1)C(=O)N[C@@H](CCCNC(=N)N)C(=O)N1CCC[C@H]1C(=O)N[C@@H](CCCNC(=N)N)C(=O)N[C@@H](CC(N)=O)C(N)=O)N(C)C(=O)Cc1cccs1 ({Acetyl(2-thienyl)}-[NMeL]FRPRN-NH2)
Activity ([1]; filed as antagonist): Active

CN(C(=O)Cc1cccs1)[C@@H](CC(N)=O)C(=O)N[C@@H](Cc1ccccc1)C(=O)N[C@@H](CCCNC(=N)N)C(=O)N1CCC[C@H]1C(=O)N[C@@H](CCCNC(=N)N)C(=O)N[C@@H](CC(N)=O)C(N)=O ({Acetyl(2-thienyl)}-[NMeN]FRPRN-NH2)
Activity ([1]; filed as antagonist): Active

CN(C(=O)Cc1cccs1)[C@@H](Cc1c[nH]c2ccccc12)C(=O)N[C@@H](Cc1ccccc1)C(=O)N[C@@H](CCCNC(=N)N)C(=O)N1CCC[C@H]1C(N)=O ({Acetyl(2-thienyl)}-[NMeW]FRP-NH2)
Activity ([1]; filed as antagonist): Active
Activity (Neuromedin-U receptor 2 [2]): Active

CN(C(=O)Cc1cccs1)[C@@H](Cc1c[nH]c2ccccc12)C(=O)N[C@@H](Cc1ccccc1)C(=O)N[C@@H](CCCNC(=N)N)C(=O)N1CCC[C@H]1C(=O)N[C@@H](CCCCN)C(=O)N[C@@H](CC(N)=O)C(N)=O ({Acetyl(2-thienyl)}-[NMeW]FRPKN-NH2)
Activity [1]: inactive

CN(C(=O)Cc1cccs1)[C@@H](Cc1c[nH]c2ccccc12)C(=O)N[C@@H](Cc1ccccc1)C(=O)N[C@@H](CCCNC(=N)N)C(=O)N1CCC[C@H]1C(=O)N[C@@H](CCCNC(=N)N)C(N)=O ({Acetyl(2-thienyl)}-[NMeW]FRPR-NH2)
Selectivity ratio (Homo sapiens): 2.1
Activity ([1]; filed as antagonist): Active

CN(C(=O)Cc1cccs1)[C@@H](Cc1c[nH]c2ccccc12)C(=O)N[C@@H](Cc1ccccc1)C(=O)N[C@@H](CCCNC(=N)N)C(=O)N1CCC[C@H]1C(=O)N[C@@H](CCCNC(=N)N)C(=O)O ({Acetyl(2-thienyl)}-[NMeW]FRPR-OH)
Activity ([1]; filed as antagonist): Active
Activity (Neuromedin-U receptor 2 [2]): Active

CN(C(=O)Cc1cccs1)[C@@H](Cc1c[nH]c2ccccc12)C(=O)N[C@@H](Cc1ccccc1)C(=O)N[C@@H](CCCNC(=N)N)C(=O)N1CCC[C@H]1C(=O)N[C@@H](CCCNC(=N)N)C(=O)N[C@@H](CC(=O)O)C(N)=O ({Acetyl(2-thienyl)}-[NMeW]FRPRD-NH2)
Activity ([1]; filed as antagonist): Active

CN(C(=O)Cc1cccs1)[C@@H](Cc1c[nH]c2ccccc12)C(=O)N[C@@H](Cc1ccccc1)C(=O)N[C@@H](CCCNC(=N)N)C(=O)N1CCC[C@H]1C(=O)N[C@@H](CCCNC(=N)N)C(=O)N[C@@H](CC(N)=O)C(N)=O ({Acetyl(2-thienyl)}-[NMeW]FRPRN-NH2)
Activity ([1]; filed as antagonist): Active

CN(C(=O)Cc1cccs1)[C@@H](Cc1c[nH]c2ccccc12)C(=O)N[C@@H](Cc1ccccc1)C(=O)N[C@@H](CCCNC(=N)N)C(=O)N1CCC[C@H]1C(=O)N[C@@H](CCCNC(=N)N)C(=O)N[C@@H](CC(N)=O)C(=O)O ({Acetyl(2-thienyl)}-[NMeW]FRPRN-OH)
Activity ([1]; filed as antagonist): Active

CN(C(=O)Cc1cccs1)[C@@H](Cc1c[nH]c2ccccc12)C(=O)N[C@@H](Cc1ccccc1)C(=O)N[C@@H](CCCNC(=N)N)C(=O)N1CCC[C@H]1C(=O)N[C@@H](CCCNC(=N)N)C(=O)N[C@@H](CCC(N)=O)C(N)=O ({Acetyl(2-thienyl)}-[NMeW]FRPRQ-NH2)
Activity ([1]; filed as antagonist): Active

CN(C(=O)Cc1cccs1)[C@@H](Cc1c[nH]c2ccccc12)C(=O)N[C@@H](Cc1ccccc1)C(=O)N[C@@H](CCCNC(=N)N)C(=O)N1CCC[C@H]1C(=O)N[C@@H](CCCCNC(=N)N)C(N)=O ({Acetyl(2-thienyl)}-[NMeW]FRP[hArg]-NH2)
Activity ([1]; filed as antagonist): Active
Activity (Neuromedin-U receptor 2 [2]): Active

CN(C(=O)Cc1cccs1)[C@@H](Cc1c[nH]c2ccccc12)C(=O)N[C@@H](Cc1ccccc1)C(=O)N[C@@H](CCCNC(=N)N)C(=O)N1CCCC[C@H]1C(=O)N[C@@H](CCCNC(=N)N)C(=O)N[C@@H](CC(N)=O)C(N)=O ({Acetyl(2-thienyl)}-[NMeW]FR[Pip]RN-NH2)
Activity ([1]; filed as antagonist): Active

CC(C)C[C@H](NC(=O)[C@H](Cc1c[nH]c2ccccc12)N(C)C(=O)Cc1cccs1)C(=O)N[C@@H](CCCNC(=N)N)C(=O)N1CCC[C@H]1C(=O)N[C@@H](CCCNC(=N)N)C(=O)N[C@@H](CC(N)=O)C(N)=O ({Acetyl(2-thienyl)}-[NMeW]LRPRN-NH2)
Activity ([1]; filed as antagonist): Active

CN(C(=O)Cc1cccs1)[C@@H](Cc1c[nH]c2ccccc12)C(=O)N[C@@H](Cc1c[nH]c2ccccc12)C(=O)N[C@@H](CCCNC(=N)N)C(=O)N1CCC[C@H]1C(=O)N[C@@H](CCCNC(=N)N)C(=O)N[C@@H](CC(N)=O)C(N)=O ({Acetyl(2-thienyl)}-[NMeW]WRPRN-NH2)
Activity ([1]; filed as antagonist): Active

CN(C(=O)Cc1cccs1)[C@@H](Cc1c[nH]c2ccccc12)C(=O)N[C@@H](Cc1ccc(F)cc1)C(=O)N[C@@H](CCCNC(=N)N)C(=O)N1CCC[C@H]1C(=O)N[C@@H](CCCNC(=N)N)C(N)=O ({Acetyl(2-thienyl)}-[NMeW][Phe(4-F)]RPR-NH2)
Kb (Neuromedin-U receptor 2 [3]): 41.7 nM
Activity [4]: Active
Kb (Neuromedin-U receptor 2 [5]): 41 nM
Kb [6]: 6.4 nM
Kb (Neuromedin-U receptor 1): 6.46 nM
Activity [7]: inactive
Activity ([1]; filed as antagonist): Active
Activity (Neuromedin-U receptor 2 [2]): Active
Activity [8]: inactive
half-life [9]: 1.9 min

CN(C(=O)Cc1cccs1)[C@@H](Cc1c[nH]c2ccccc12)C(=O)N1Cc2ccccc2C[C@H]1C(=O)N[C@@H](CCCNC(=N)N)C(=O)N1CCC[C@H]1C(=O)N[C@@H](CCCNC(=N)N)C(N)=O ({Acetyl(2-thienyl)}-[NMeW][Tic]RPR-NH2)
Selectivity ratio (Homo sapiens): 2

CN(C(=O)Cc1cccs1)[C@@H](Cc1c[nH]c2ccccc12)C(=O)N[C@@](C)(Cc1ccccc1)C(=O)N[C@@H](CCCNC(=N)N)C(=O)N1CCC[C@H]1C(=O)N[C@@H](CCCNC(=N)N)C(N)=O ({Acetyl(2-thienyl)}-[NMeW][αMeF]RPR-NH2)
Kb (Neuromedin-U receptor 2 [3]): 417 nM
remaining at 0.25 h [10]: 97%
Stability [11]: Stable
remaining at 2 h [12]: 96.7%
Selectivity ratio (Homo sapiens): 2.3
Kb (Neuromedin-U receptor 2 [5]): 421 nM
Kb [6]: 45 nM
Kb (Neuromedin-U receptor 1): 44.7 nM
Activity [7]: inactive
Activity ([1]; filed as antagonist): Dose-Dependent Effect
Activity (Neuromedin-U receptor 2 [2]): Dose-Dependent Effect
Activity [8]: inactive
Retention_time [13]: 48.27 min
Drug metabolism [14]: Metabolite_Detected
half-life [9]: 5 min
Stability [15]: Unstable

CN(C(=O)Cc1cccs1)[C@@H](Cc1ccc(O)cc1)C(=O)N[C@@H](Cc1ccccc1)C(=O)N[C@@H](CCCNC(=N)N)C(=O)N1CCC[C@H]1C(=O)N[C@@H](CCCNC(=N)N)C(=O)N[C@@H](CC(N)=O)C(N)=O ({Acetyl(2-thienyl)}-[NMeY]FRPRN-NH2)
Activity ([1]; filed as antagonist): Active
